IC50 data for 8 molecules are collected here from US20250090524A1, “BTK INHIBITORS” (BIOGEN MA INC., priority 2021, published 2025).

The target in one assay is T1, BTK (Homo sapiens, UniProt Q06187).
T1 construct: purchased Upstate 14-552
The assay is described as follows: In Vitro BTK Kinase Assay: Btk-PolyGAT-LS Assay. The conditions noted are these: active BTK enzyme 0.25 nM, fluorescein-labeled polyGAT peptide 100 nM, 30 minutes incubation, TRF readout; read-out: In Vitro BTK Kinase Assay IC50 Score. Type of assay: biochemical. The procedure: The purpose of the BTK in vitro assay is to determine compound potency against BTK through the measurement of IC50. Compound inhibition is measured after monitoring the amount of phosphorylation of a fluorescein-labeled polyGAT peptide (Invitrogen PV3611) in the presence of active BTK enzyme (Upstate 14-552), ATP, and inhibitor. The BTK kinase reaction was done in a black 96 well plate (costar 3694). For a typical assay, a 24 μL aliquot of a ATP/peptide master mix (final concentration; ATP […], polyGAT 100 nM) in kinase buffer (10 mM Tris-HCl pH 7.5, 10 mM MgCl2, 200 μM […], 5 mM DTT, 0.01% Triton X-100, and 0.2 mg/ml casein) is added to each well. Next, I uL of a 4-fold, 40× compound titration in 100% DMSO solvent is added, followed by adding […] of BTK enzyme mix in 1× kinase buffer (with a final concentration of 0.25 nM). The assay is incubated for 30 minutes before being stopped with […] of a 50 mM EDTA solution. Aliquots (5 uL) of the kinase reaction are transferred to a low volume white 384 well plate (Corning 3674), and […] of a 2× detection buffer (Invitrogen PV3574, with 4 nM Tb-PY20 antibody, Invitrogen PV3552) is added. The plate is covered and incubated for 45 minutes at room temperature. Time resolved fluorescence (TRF) on Molecular Devices M5 (332 nm excitation; 488 nm emission; 518 nm fluorescein emission) is measured. IC50 values are calculated using a four parameter fit with 100% enzyme activity determined from the DMSO control and 0% activity from the EDTA control.
“†” represents an IC50 of greater than 1 μM and equal to or less than 10 μM. “††” represents an IC50 of greater than 10 nM and equal to or less than 1 μM (10 nM<IC50≤1 μM). “†††” represents an IC50 of greater than 1 nM and equal to or less than 10 nM (1 nM<IC50≤10 nM). “††††” represents an IC50 of less than 1 nM.

For assay [1], the system named is CD69 expression on CD19+ B cells in human whole blood. The assay is described as follows: In Vitro Whole Blood CD69 Assay. Type of assay: cell-based. The conditions noted are these: B-cell; human heparinized whole blood, anti-human IgD stimulation, overnight (18 to 22 hours), percentage of CD19+ B cells expressing CD69, flow cytometry; read-out: In Vitro HWB CD69 Assay IC50 Score. The procedure:
Human heparinized venous blood from health donors was aliquoted into 96-well plate and “spiked” with serial dilutions of formula I compounds in DMSO or with DMSO without drug. The final concentration of DMSO in all wells was 0.1%. The plate was incubated at 37° C. for 30 min. Drug-containing samples were stimulated with […] mouse anti-human IgD-dextran (1A62) or 20 μg/mL polyclonal rabbit F(ab′)2 anti-human IgD.
Phosphate-buffered saline (PBS) was added to the negative control unstimulated sample and the plates were incubated overnight (18 to 22 hours) at 37° C. Cells were stained with fluorochrome-conjugated anti-CD19 and anti-CD69 antibodies. Lyse/fix solution was used to remove red blood cells by hypotonic lysis and to fix the remaining cells, which were then analyzed by flow cytometry. CD19+B cells were gated and analyzed for CD69 expression.
The percentage of B cells expressing CD69 was plotted versus the log 10 of the concentration of the drug and the best-fit curves (variable Hill slope) were generated to obtain the IC50 value.
“†” represents an IC50 of greater than 10 μM. “††” represents an IC50 of greater than 1 μM and equal to or less than 10 μM (1 μM<IC50≤10 μM). “†††” represents an IC50 of less than 1 μM.

Usually IC50 stands for the midpoint of a concentration-inhibition curve.

T1 sequence (Q06187 whole entry): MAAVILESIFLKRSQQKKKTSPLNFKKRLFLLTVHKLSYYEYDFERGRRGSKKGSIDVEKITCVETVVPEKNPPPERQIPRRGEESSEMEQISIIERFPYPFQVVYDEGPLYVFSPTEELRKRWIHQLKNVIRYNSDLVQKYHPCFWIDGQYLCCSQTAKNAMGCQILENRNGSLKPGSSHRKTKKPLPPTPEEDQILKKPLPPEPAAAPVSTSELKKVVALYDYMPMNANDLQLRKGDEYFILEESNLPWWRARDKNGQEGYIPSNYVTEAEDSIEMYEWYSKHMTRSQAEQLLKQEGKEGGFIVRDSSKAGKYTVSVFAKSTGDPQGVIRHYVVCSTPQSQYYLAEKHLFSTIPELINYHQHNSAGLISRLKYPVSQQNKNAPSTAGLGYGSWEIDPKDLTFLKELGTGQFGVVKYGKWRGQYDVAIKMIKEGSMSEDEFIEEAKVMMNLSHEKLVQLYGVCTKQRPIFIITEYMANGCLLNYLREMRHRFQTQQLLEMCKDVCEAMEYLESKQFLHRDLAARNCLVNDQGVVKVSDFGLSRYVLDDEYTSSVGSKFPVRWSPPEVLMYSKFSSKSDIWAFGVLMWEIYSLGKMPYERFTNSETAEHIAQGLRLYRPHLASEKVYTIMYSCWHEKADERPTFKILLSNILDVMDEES

As to `C=CC(=O)N1CCC(c2cc(-c3cnn(C)c3)cn3nccc23)CC1` [Example 8, 1-[4-[6-(1-methylpyrazol-4-yl)pyrazolo[1,5-a]pyridin-4-yl]-1-piperidyl]prop-2-en-1-one], the half-maximal inhibitory concentration (IC50) at BTK was 1 to 10 nM; in assay [1] it was 1000 to 10000 nM.
As for `C=CC(=O)N1CCC(c2nc(-c3cnn(C)c3)cn3ncc(C)c23)CC1` [Example 9, 1-[4-[3-methyl-6-(1-methylpyrazol-4-yl)pyrazolo[1,5-a]pyrazin-4-yl]-1-piperidyl]prop-2-en-1-one], the concentration for half-maximal inhibition (IC50) fell in the range of 1 to 10 nM at BTK and 1000 to 10000 nM in assay [1].
For `C=CC(=O)N1C2CCC1CC(c1nc(-c3cnn(C)c3)cn3nccc13)C2` (stereo not shown) [Example 11, 1-[3-[6-(1-methylpyrazol-4-yl)pyrazolo[1,5-a]pyrazin-4-yl]-8-azabicyclo [3.2.1]octan-8-yl]prop-2-en-1-one] the same measures were 1 to 10 nM and 1000 to 10000 nM.
For `C=CC(=O)N1C2CCCC1CC(c1nc(-c3cnn(C)c3)cn3nccc13)C2` (stereo not shown) [Example 13, 1-[3-[6-(1-methylpyrazol-4-yl)pyrazolo[1,5-a]pyrazin-4-yl]-9-azabicyclo[3.3.1]nonan-9-yl]prop-2-en-1-one] the same measures were 1 to 10 nM and 1000 to 10000 nM.
In the same order, the values of `C=CC(=O)N1CC2CCC1CC2c1nc(-c2cnn(C)c2)cn2nccc12` (stereo not shown) [Example 14, 1-[5-[6-(1-methylpyrazol-4-yl)pyrazolo[1,5-a]pyrazin-4-yl]-2-azabicyclo[2.2.2]octan-2-yl]prop-2-en-1-one] are 1 to 10 nM and 1000 to 10000 nM.
Turning to `C=CC(=O)N1CCC(c2nc(-c3cnn(C)c3)cn3nccc23)C(C)C1` (stereo not shown) [Example 15, 1-[3-methyl-4-[6-(1-methylpyrazol-4-yl)pyrazolo[1,5-a]pyrazin-4-yl]-1-piperidyl]prop-2-en-1-one], the IC50 was 10 to 1000 nM on BTK and 1000 to 10000 nM in assay [1].
For `C=CC(=O)Nc1cccc(-c2nc(-c3cnn(C)c3)cn3nccc23)c1` [Example 28, N-(3-(6-(1-methyl-1H-pyrazol-4-yl)pyrazolo[1,5-a]pyrazin-4-yl)phenyl) acrylamide], the half-maximal inhibitory concentration (IC50) on BTK lay within 10 to 1000 nM; in assay [1], 1000 to 10000 nM.
For the molecule `C=CC(=O)N(C)c1cccc(-c2nc(-c3cnn(C)c3)cn3nccc23)c1` [Example 29, N-methyl-N-(3-(6-(1-methyl-1H-pyrazol-4-yl)pyrazolo[1,5-a]pyrazin-4-yl)phenyl)acrylamide], the figures for the IC50 (on BTK; in assay [1]) were 1 to 10 nM and 1000 to 10000 nM, respectively.
